Data published in patent US8703768B2, “Nitrogen containing heteroaryl compounds” (Hoffmann-La Roche Inc., priority 2010, dated 2014).

The compounds below were run against human PDE10A (Homo sapiens (Human), UniProt Q9Y233) (assay: human PDE10A full length Scintillation Proximity Assay (SPA)). Settings: 50 nM cGMP and 50 nM [3H]-cGMP, 20 minutes at room temperature; read-out: PDE10A inhibition IC50.
Chain of human PDE10A (Q9Y233 other isoform, or with tags, fused parts or gaps): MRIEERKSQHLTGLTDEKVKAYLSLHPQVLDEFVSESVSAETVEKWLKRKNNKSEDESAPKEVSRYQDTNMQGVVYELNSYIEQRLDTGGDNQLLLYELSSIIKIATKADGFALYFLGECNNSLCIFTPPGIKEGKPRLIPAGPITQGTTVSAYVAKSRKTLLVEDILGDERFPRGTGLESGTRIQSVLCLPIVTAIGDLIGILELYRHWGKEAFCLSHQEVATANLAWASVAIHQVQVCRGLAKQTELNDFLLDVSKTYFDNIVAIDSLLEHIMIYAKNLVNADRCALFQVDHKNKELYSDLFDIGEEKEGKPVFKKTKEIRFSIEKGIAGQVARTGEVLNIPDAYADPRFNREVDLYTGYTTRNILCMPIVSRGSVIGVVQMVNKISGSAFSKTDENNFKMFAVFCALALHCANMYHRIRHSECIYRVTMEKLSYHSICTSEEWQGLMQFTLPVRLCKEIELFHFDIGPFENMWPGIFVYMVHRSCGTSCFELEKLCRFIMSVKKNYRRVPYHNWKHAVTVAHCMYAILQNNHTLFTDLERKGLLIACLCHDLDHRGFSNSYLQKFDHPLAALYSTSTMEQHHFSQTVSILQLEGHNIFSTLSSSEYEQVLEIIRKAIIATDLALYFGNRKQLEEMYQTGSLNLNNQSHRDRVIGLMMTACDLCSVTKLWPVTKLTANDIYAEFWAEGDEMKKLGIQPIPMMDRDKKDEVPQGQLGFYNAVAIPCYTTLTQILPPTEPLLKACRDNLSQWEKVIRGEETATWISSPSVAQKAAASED
Assay type: biochemical
Procedure, shortened: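 Full-length enzyme incubated with compounds; reaction started with cGMP plus [^3H]-cGMP substrate and run 20 min at room temperature. Stopped with yttrium silicate SPA beads in 18 mM zinc sulphate, 1 h shaking, then scintillation counting; background from enzyme-free wells.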
An IC50 of 0.4 nM was found for CC(C)(O)CNC(=O)c1ncccc1NC(=O)c1nc(C2CC2)cnc1Nc1cncnc1 [Example 98, 6-Cyclopropyl-3-(pyrimidin-5-ylamino)-pyrazine-2-carboxylic acid [2-(2-hydroxy-2-methyl-propylcarbamoyl)-pyridin-3-yl]-amide] in this work. An IC50 of 171 nM was found for CNC(=O)c1nn(C)cc1NC(=O)c1nc(C(C)O)cnc1Nc1cncnc1 (stereo not drawn) [Example 115, 6-(1-Hydroxy-ethyl)-3-(pyrimidin-5-ylamino)-pyrazine-2-carboxylic acid (1-methyl-3-methylcarbamoyl-1H-pyrazol-4-yl)-amide] in this work. An IC50 of 3.1 nM was found for CC(C)Cc1ncc(Nc2cncnc2)c(C(=O)Nc2cccnc2C(=O)NCC(C)(C)O)n1 [Example 331, 2-Isobutyl-5-(pyrimidin-5-ylamino)-pyrimidine-4-carboxylic acid [2-(2-hydroxy-2-methyl-propylcarbamoyl)-pyridin-3-yl]-amide] in this work. An IC50 of 4.6 nM was found for CNC(=O)c1nn(C)cc1NC(=O)c1nc(C2CC2)ccc1Nc1cncnc1 [Example 2, 6-Cyclopropyl-3-(pyrimidin-5-ylamino)-pyridine-2-carboxylic acid (1-methyl-3-methylcarbamoyl-1H-pyrazol-4-yl)-amide] in this work. An IC50 of 1.3 nM was found for O=C(NC1CCCC1)c1ccncc1NC(=O)c1nc(C2CC2)ccc1Nc1cncnc1 [Example 61, 6-Cyclopropyl-3-(pyrimidin-5-ylamino)-pyridine-2-carboxylic acid (4-cyclopentylcarbamoyl-pyridin-3-yl)-amide] in this work. An IC50 of 2.9 nM was found for Cn1ncc(NC(=O)c2nc(C3CC3)cnc2Nc2cncnc2)c1C(=O)NCC(F)F [Example 145, 6-Cyclopropyl-3-(pyrimidin-5-ylamino)-pyrazine-2-carboxylic acid [5-(2,2-difluoro-ethylcarbamoyl)-1-methyl-1H-pyrazol-4-yl]-amide] in this work. An IC50 of 35.9 nM was found for CN(CCF)C(=O)c1c(NC(=O)c2nc(C3CC3)cnc2Nc2cncnc2)cnn1C [Example 245, 6-Cyclopropyl-3-(pyrimidin-5-ylamino)-pyrazine-2-carboxylic acid {5-[(2-fluoro-ethyl)-methyl-carbamoyl]-1-methyl-1H-pyrazol-4-yl}-amide] in this work. An IC50 of 0.7 nM was found for CNC(=O)c1ccc(F)cc1NC(=O)c1nc(C2CC2)cnc1Nc1cncnc1 [Example 292, 6-Cyclopropyl-3-(pyrimidin-5-ylamino)-pyrazine-2-carboxylic acid (5-fluoro-2-methylcarbamoyl-phenyl)-amide] in this work. An IC50 of 2.2 nM was found for CON(C)C(=O)c1c(NC(=O)c2nc(C3CC3)cnc2Nc2cncnc2)cnn1C [Example 334, 6-Cyclopropyl-3-(pyrimidin-5-ylamino)-pyrazine-2-carboxylic acid [5-(methoxy-methyl-carbamoyl)-1-methyl-1H-pyrazol-4-yl]-amide] in this work. An IC50 of 105 nM was found for O=C(Nc1cnccc1C(=O)N1CCCC1CO)c1nc(C2CC2)ccc1Nc1cncnc1 (stereo not drawn) [Example 80, 6-Cyclopropyl-3-(pyrimidin-5-ylamino)-pyridine-2-carboxylic acid [4-(2-hydroxymethyl-pyrrolidine-1-carbonyl)-pyridin-3-yl]-amide] in this work. An IC50 of 7.5 nM was found for Cn1cc(NC(=O)c2nc(C3CC3)ccc2Nc2cncnc2)c(C(N)=O)n1 [Example 3, 6-Cyclopropyl-3-(pyrimidin-5-ylamino)-pyridine-2-carboxylic acid (3-carbamoyl-1-methyl-1H-pyrazol-4-yl)-amide] in this work. An IC50 of 0.5 nM was found for CNC(=O)c1cc(OC)ccc1NC(=O)c1nc(C2CC2)cnc1Nc1cncnc1 [Example 225, 6-Cyclopropyl-3-(pyrimidin-5-ylamino)-pyrazine-2-carboxylic acid (4-methoxy-2-methylcarbamoyl-phenyl)-amide] in this work. An IC50 of 43.2 nM was found for CNC(=O)c1c(NC(=O)c2nc(C3CC3)cnc2Nc2cncnc2)cnn1CC1CCOC1 (stereo not drawn) [Example 286, 6-Cyclopropyl-3-(pyrimidin-5-ylamino)-pyrazine-2-carboxylic acid [5-methylcarbamoyl-1-(tetrahydro-furan-3-ylmethyl)-1H-pyrazol-4-yl]-amide] in this work. An IC50 of 18.1 nM was found for CN(C)C1CCN(C(=O)c2nn(C)cc2NC(=O)c2nc(C3CC3)ccc2Nc2cncnc2)C1 (stereo not drawn) [Example 37, 6-Cyclopropyl-3-(pyrimidin-5-ylamino)-pyridine-2-carboxylic acid [3-(3-dimethylamino-pyrrolidine-1-carbonyl)-1-methyl-1H-pyrazol-4-yl]-amide] in this work. An IC50 of 250 nM was found for CNC(=O)c1c(NC(=O)c2nc(C(C)(C)O)ncc2Nc2cncnc2)cnn1C [Example 340, 2-(1-Hydroxy-1-methyl-ethyl)-5-(pyrimidin-5-ylamino)-pyrimidine-4-carboxylic acid (1-methyl-5-methylcarbamoyl-1H-pyrazol-4-yl)-amide] in this work. An IC50 of 11.1 nM was found for CN1CC(NC(=O)c2c(NC(=O)c3nc(C4CC4)cnc3Nc3cncnc3)cnn2C)C1 [Example 315, 6-Cyclopropyl-3-(pyrimidin-5-ylamino)-pyrazine-2-carboxylic acid [1-methyl-5-(1-methyl-azetidin-3-ylcarbamoyl)-1H-pyrazol-4-yl]-amide] in this work. An IC50 of 58 nM was found for Cn1cc(NC(=O)c2nc(C3CC3)ccc2Nc2cncnc2)c(C(=O)N2CC3(COC3)C2)n1 [Example 51, 6-Cyclopropyl-3-(pyrimidin-5-ylamino)-pyridine-2-carboxylic acid [1-methyl-3-(2-oxa-6-aza-spiro[3.3]heptane-6-carbonyl)-1H-pyrazol-4-yl]-amide] in this work. An IC50 of 11.6 nM was found for CNC(=O)c1c(NC(=O)c2nc(C3CC3)cnc2Nc2cncnc2)cnn1C(C)C [Example 139, 6-Cyclopropyl-3-(pyrimidin-5-ylamino)-pyrazine-2-carboxylic acid (1-isopropyl-5-methylcarbamoyl-1H-pyrazol-4-yl)-amide] in this work. An IC50 of 8.3 nM was found for COC1CCN(C(=O)c2nn(C)cc2NC(=O)c2nc(C3CC3)ccc2Nc2cncnc2)C1 (stereo not drawn) [Example 48, 6-Cyclopropyl-3-(pyrimidin-5-ylamino)-pyridine-2-carboxylic acid [3-(3-methoxy-pyrrolidine-1-carbonyl)-1-methyl-1H-pyrazol-4-yl]-amide] in this work. An IC50 of 5.5 nM was found for CCc1ccc(NC(=O)c2nc(C3CC3)cnc2Nc2cncnc2)c(C(=O)NC)n1 [Example 180, 6-Cyclopropyl-3-(pyrimidin-5-ylamino)-pyrazine-2-carboxylic acid (6-ethyl-2-methylcarbamoyl-pyridin-3-yl)-amide] in this work. An IC50 of 1.1 nM was found for COCC(C)(C)CNC(=O)c1ccncc1NC(=O)c1nc(C2CC2)cnc1Nc1cncnc1 [Example 114, 6-Cyclopropyl-3-(pyrimidin-5-ylamino)-pyrazine-2-carboxylic acid [4-(3-methoxy-2,2-dimethyl-propylcarbamoyl)-pyridin-3-yl]-amide] in this work. An IC50 of 3.2 nM was found for Cn1cc(NC(=O)c2nc(C3CC3)ccc2Nc2cncnc2)c(C(=O)N2CCC(F)(F)C2)n1 [Example 36, 6-Cyclopropyl-3-(pyrimidin-5-ylamino)-pyridine-2-carboxylic acid [3-(3,3-difluoro-pyrrolidine-1-carbonyl)-1-methyl-1H-pyrazol-4-yl]-amide] in this work. An IC50 of 14.9 nM was found for Cc1ccc(NC(=O)c2nc(C3CC3)cnc2Nc2cncnc2)c(C(=O)N(C)C)n1 [Example 268, 6-Cyclopropyl-3-(pyrimidin-5-ylamino)-pyrazine-2-carboxylic acid (2-dimethylcarbamoyl-6-methyl-pyridin-3-yl)-amide] in this work. An IC50 of 5.8 nM was found for CC1(NC(=O)c2ccncc2NC(=O)c2nc(C3CC3)cnc2Nc2cncnc2)COC1 [Example 121, 6-Cyclopropyl-3-(pyrimidin-5-ylamino)-pyrazine-2-carboxylic acid [4-(3-methyl-oxetan-3-ylcarbamoyl)-pyridin-3-yl]-amide] in this work. An IC50 of 5.3 nM was found for Cn1ncc(NC(=O)c2nc(C3CC3)cnc2Nc2cncnc2)c1C(=O)NC1CCCC1O (stereo not drawn) [Example 336, 6-Cyclopropyl-3-(pyrimidin-5-ylamino)-pyrazine-2-carboxylic acid [5-(2-hydroxy-cyclopentylcarbamoyl)-1-methyl-1H-pyrazol-4-yl]-amide] in this work. An IC50 of 2690 nM was found for CCNC(=O)c1c(NC(=O)c2nc(C3CC3)cnc2Nc2cncnc2)sc2c1CCCC2 [Example 185, 6-Cyclopropyl-3-(pyrimidin-5-ylamino)-pyrazine-2-carboxylic acid (3-ethylcarbamoyl-4,5,6,7-tetrahydro-benzo[b]thiophen-2-yl)-amide] in this work. An IC50 of 4.9 nM was found for CC(C)NC(=O)c1ncccc1NC(=O)c1nc(C2CC2)cnc1Nc1cncnc1 [Example 221, 6-Cyclopropyl-3-(pyrimidin-5-ylamino)-pyrazine-2-carboxylic acid (2-isopropylcarbamoyl-pyridin-3-yl)-amide] in this work. An IC50 of 7.5 nM was found for CN(CCO)C(=O)c1nn(C)cc1NC(=O)c1nc(C2CC2)ccc1Nc1cncnc1 [Example 40, 6-Cyclopropyl-3-(pyrimidin-5-ylamino)-pyridine-2-carboxylic acid {3-[(2-hydroxy-ethyl)-methyl-carbamoyl]-1-methyl-1H-pyrazol-4-yl}-amide] in this work. An IC50 of 1.1 nM was found for CC(C)(O)CNC(=O)c1ncccc1NC(=O)c1nc(C(C)(C)C)ncc1Nc1cncnc1 [Example 330, 2-tert-Butyl-5-(pyrimidin-5-ylamino)-pyrimidine-4-carboxylic acid [2-(2-hydroxy-2-methyl-propylcarbamoyl)-pyridin-3-yl]-amide] in this work. An IC50 of 19.5 nM was found for CNC(=O)c1c(NC(=O)c2nc(C3CC3)cnc2Nc2cncnc2)cnn1CCC(F)(F)F [Example 173, 6-Cyclopropyl-3-(pyrimidin-5-ylamino)-pyrazine-2-carboxylic acid [5-methylcarbamoyl-1-(3,3,3-trifluoro-propyl)-1H-pyrazol-4-yl]-amide] in this work.
